Among the test systems are HT-29; Hs-578T; HCT-15; BT-549; HL-60; LOX IMVI; TK-10; SK-OV-3; HCT-116; OVCAR-5; ACHN; A549; EKVX; SN12C; NCI-H522; HOP-62; MCF7; U-251; NCI-H226; DU-145.
Holding throughout (experiment): NCI tumour cell line growth inhibition, 48 h

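Cultured in 96-well plates, cells were exposed to test compound for 48 hours across five concentrations. GI50: concentration for 50% inhibition of growth.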 Calls of active or inactive are those of the source. Cut-off read from the data, not from the text of the source: active = GI50 up to about 1.1 µM and inactive = higher.

As to `COc1ccc2c3c1O[C@H]1C(OC)C=CC4C(C2)N(Cc2cccs2)CCC341` (stereo partly specified), the GI50 in the assay with HT-29 is 69.7 µM (inactive); in the assay with Hs-578T it was > 100 µM (inactive); with HCT-15 it was 55.2 µM; with BT-549, 40.1 µM (inactive); in the assay with HL-60, 24 µM (inactive); with LOX IMVI it was > 100 µM (inactive). Besides, the GI50 with TK-10 was 92.5 µM (inactive); in the assay on SK-OV-3, > 100 µM (inactive); in the assay on HCT-116 it was 49.2 µM (inactive); in the assay on OVCAR-5, > 100 µM (inactive); with ACHN it was > 10 µM (inactive); in the assay with A549, 53.8 µM (inactive). The GI50 with EKVX is 88.3 µM (inactive); with SN12C it was > 100 µM (inactive); in the assay with NCI-H522, > 100 µM (inactive); in the assay on HOP-62, > 100 µM (inactive).
In the case of `CN(/N=C/C=N/N(C)C1=NCCCN1)C1=NCCCN1`, the GI50 in the assay with HT-29 was > 100 µM (inactive); in the assay on Hs-578T it was > 100 µM (inactive); in the assay on MCF7 it was > 100 µM (inactive); in the assay with U-251, > 100 µM (inactive); with HCT-15, more than 100 µM; with NCI-H226 it was > 100 µM (inactive). Moreover, the GI50 in the assay with BT-549, in the assay with LOX IMVI, in the assay with TK-10, in the assay with SK-OV-3, in the assay on HCT-116 and in the assay with OVCAR-5 was > 100 µM (inactive) throughout. Also, the GI50 in the assay on ACHN, in the assay with A549, with EKVX, with SN12C, in the assay on NCI-H522 and in the assay with HOP-62 was > 100 µM (inactive) throughout.
On to `OCC1C(O)C(O)[C@@H]2SCCN12` (stereo partly specified), for which the GI50 is > 100 µM (inactive) with HT-29; > 100 µM (inactive) in the assay with Hs-578T; > 100 µM (inactive) with U-251; more than 100 µM with HCT-15; > 100 µM (inactive) with NCI-H226; > 100 µM (inactive) with BT-549. Further, the GI50 with HL-60, in the assay with LOX IMVI, with DU-145, in the assay with TK-10, with SK-OV-3 and in the assay with HCT-116 was > 100 µM (inactive) each time. Also, the GI50 with OVCAR-5, with ACHN, in the assay on A549, in the assay on EKVX, in the assay on NCI-H522 and in the assay on HOP-62 was > 100 µM (inactive) throughout.
For `O=[N+]([O-])C(=C(N1CCCCC1)N1CCCCC1)/C(Cl)=C(\Cl)[N+](=O)[O-]`, the GI50 with HT-29 is 4.74 µM (inactive); in the assay on Hs-578T, 4.86 µM (inactive); in the assay on MCF7, 2.46 µM (inactive); in the assay on U-251, 18.7 µM (inactive); in the assay with HCT-15 it was 2.17 µM; in the assay on NCI-H226 it was 20.6 µM (inactive). Also, the GI50 was 6.95 µM (inactive) with BT-549; 2.32 µM (inactive) in the assay with LOX IMVI; 2.88 µM (inactive) in the assay with DU-145; 5.41 µM (inactive) in the assay on TK-10; 23.2 µM (inactive) in the assay with SK-OV-3; 2.61 µM (inactive) in the assay with HCT-116. Also, the GI50 was 17.9 µM (inactive) in the assay with OVCAR-5; 3.27 µM (inactive) in the assay on ACHN; 19.5 µM (inactive) in the assay with A549; 13 µM (inactive) in the assay with EKVX; 1.67 µM (inactive) with SN12C; 1.76 µM (inactive) with NCI-H522. Also, the GI50 with HOP-62 was 15.6 µM (inactive).
Regarding `O=C1/C(=C/c2cccc3ccccc23)CCc2ccc([N+](=O)[O-])cc21`, the GI50 in the assay on Hs-578T was 9.57 µM (inactive); in the assay on MCF7, 4.8 µM (inactive); in the assay on U-251 it was 14.1 µM (inactive); in the assay on HCT-15, 17.9 µM; in the assay with NCI-H226 it was 27.6 µM (inactive); in the assay on BT-549, 16.1 µM (inactive). The GI50 was 8.83 µM (inactive) in the assay on HL-60; 26.9 µM (inactive) in the assay on LOX IMVI; 51.6 µM (inactive) in the assay on DU-145; 27.2 µM (inactive) in the assay with TK-10; 21.6 µM (inactive) in the assay with SK-OV-3; 14.5 µM (inactive) with HCT-116. Also, the GI50 in the assay with OVCAR-5 was > 100 µM (inactive); with ACHN, 26.8 µM (inactive); with A549 it was 22.8 µM (inactive); with EKVX it was 47 µM (inactive); in the assay on SN12C, 28.4 µM (inactive); with HOP-62, 28.2 µM (inactive).
Regarding `COc1ccc(NC(C)=O)cc1N1C(=O)/C(=C\c2cc(OC)c(OC)c(OC)c2)SC1c1ccccc1` (stereo unspecified), the GI50 with HT-29 was 47.1 µM (inactive); in the assay with MCF7, 28.2 µM (inactive); in the assay with U-251, 34.7 µM (inactive); in the assay on HCT-15, 38.1 µM; with NCI-H226, 50.9 µM (inactive); in the assay with BT-549, 97.5 µM (inactive). In addition, the GI50 is 20.4 µM (inactive) with HL-60; 39.3 µM (inactive) with LOX IMVI; 91.4 µM (inactive) with DU-145; > 100 µM (inactive) in the assay on TK-10; 82.2 µM (inactive) with SK-OV-3; 30 µM (inactive) with HCT-116. Moreover, the GI50 was > 100 µM (inactive) with OVCAR-5; 44.4 µM (inactive) in the assay on ACHN; 57.8 µM (inactive) in the assay with A549; 24.9 µM (inactive) in the assay on EKVX; 40.2 µM (inactive) in the assay with SN12C; 28.6 µM (inactive) in the assay with NCI-H522. For the same compound, the GI50 in the assay on HOP-62 was 63.7 µM (inactive).
Consider `COc1ccc2c(c1)-c1c(c3ccccc3n1CCN1CCOCC1)CC2`, for which the GI50 is 13.1 µM (inactive) in the assay on HT-29; 13.5 µM (inactive) with Hs-578T; 32.3 µM (inactive) with MCF7; 26 µM (inactive) in the assay on U-251; 25.9 µM in the assay on HCT-15; 11.7 µM (inactive) with NCI-H226. Further, the GI50 is 23 µM (inactive) in the assay with BT-549; 16.6 µM (inactive) in the assay with LOX IMVI; 58.9 µM (inactive) in the assay on DU-145; 0.0363 µM (active) in the assay with TK-10; 53.1 µM (inactive) in the assay on SK-OV-3; 22.4 µM (inactive) with HCT-116. In addition, the GI50 in the assay with OVCAR-5 is 35.2 µM (inactive); in the assay with ACHN it was 35.7 µM (inactive); in the assay on A549, 27.1 µM (inactive); in the assay with EKVX, 16.4 µM (inactive); with SN12C it was 28.2 µM (inactive); in the assay with NCI-H522 it was 15.3 µM (inactive). The GI50 with HOP-62 was 20.1 µM (inactive).
With `c1ccc(CCN2CCCCCC2)nc1`, the GI50 in the assay with HT-29 is > 100 µM (inactive); in the assay with Hs-578T, > 100 µM (inactive); in the assay with MCF7, > 100 µM (inactive); with U-251 it was > 100 µM (inactive); with HCT-15 it was more than 100 µM; in the assay with NCI-H226 it was > 100 µM (inactive). Further, the GI50 in the assay with BT-549, in the assay with LOX IMVI, in the assay on DU-145, in the assay with TK-10, in the assay on SK-OV-3 and in the assay with HCT-116 was > 100 µM (inactive) each time. The GI50 is > 100 µM (inactive) in the assay with OVCAR-5; > 100 µM (inactive) with ACHN; > 100 µM (inactive) in the assay with A549; 66.8 µM (inactive) with EKVX; > 100 µM (inactive) with SN12C; > 100 µM (inactive) in the assay with NCI-H522. Moreover, in the assay on HOP-62, the GI50 is > 100 µM (inactive).
On to `CCCOC(=O)NC(C)C(=O)NC(CCC(=O)NC(CCCC(N)C(=O)O)C(=O)NC(C)C(=O)O)C(=O)O` (stereo unspecified), for which the GI50 in the assay on HT-29 is 19.5 µM (inactive); in the assay on Hs-578T, 15.7 µM (inactive); in the assay on MCF7, 39.2 µM (inactive); with U-251 it was 25.5 µM (inactive); with HCT-15, 18.1 µM; in the assay with BT-549, 20.7 µM (inactive). The GI50 is 24.8 µM (inactive) in the assay on HL-60; 16.6 µM (inactive) with LOX IMVI; 24.4 µM (inactive) in the assay on DU-145; 69.8 µM (inactive) with TK-10; 34.4 µM (inactive) with HCT-116; 41.9 µM (inactive) in the assay with OVCAR-5. Further, the GI50 in the assay with ACHN is 42.9 µM (inactive); in the assay with A549, 74.6 µM (inactive); in the assay on EKVX it was 49.3 µM (inactive); in the assay on SN12C, 50.8 µM (inactive); in the assay on NCI-H522, 26.8 µM (inactive); in the assay with HOP-62, > 100 µM (inactive).
As to `O=C(O)/C(=C/c1ccccc1)c1ccccc1`, the GI50 in the assay on HT-29 is > 100 µM (inactive); in the assay on Hs-578T, > 100 µM (inactive); in the assay on MCF7, > 100 µM (inactive); in the assay on U-251, > 100 µM (inactive); in the assay with HCT-15 it was more than 100 µM; with BT-549, > 100 µM (inactive). Moreover, the GI50 with HL-60, in the assay with LOX IMVI, in the assay on DU-145, in the assay with TK-10, in the assay on SK-OV-3 and in the assay on HCT-116 was > 100 µM (inactive) throughout. For the same compound, the GI50 with OVCAR-5, with ACHN, with A549, in the assay on EKVX, in the assay on SN12C and in the assay with NCI-H522 was > 100 µM (inactive) throughout. Also, the GI50 in the assay on HOP-62 was > 100 µM (inactive).
As to `O=[N+]([O-])c1ccc(NN=C2CN3CCN(C2)c2ccccc23)c([N+](=O)[O-])c1`, the GI50 is > 100 µM (inactive) in the assay with HT-29; > 100 µM (inactive) in the assay on Hs-578T; > 100 µM (inactive) in the assay with MCF7; > 100 µM (inactive) with U-251; more than 100 µM in the assay with HCT-15; > 100 µM (inactive) with BT-549. Also, the GI50 in the assay on LOX IMVI, in the assay with DU-145, with TK-10, with SK-OV-3, in the assay on HCT-116 and with OVCAR-5 was > 100 µM (inactive) each time. The GI50 was > 100 µM (inactive) with ACHN; > 100 µM (inactive) in the assay with A549; 40.6 µM (inactive) with EKVX; > 100 µM (inactive) with SN12C; > 100 µM (inactive) in the assay on NCI-H522; > 100 µM (inactive) in the assay on HOP-62.

These data come from ChEMBL document CHEMBL1201862, “PubChem BioAssay data set” (2004).
